Assay results as given in the supplement of paper PMC10307832.

Experiments:
Experiment in all cases: relative viability (nuclei count vs DMSO), 5 days (fraction); higher = more cells survive
17-AAG + Linsitinib = compound: C=CCNC1=C2C[C@@H](C)C[C@H](OC)[C@H](O)[C@@H](C)/C=C(\C)[C@H](OC(N)=O)[C@@H](OC)/C=C\C=C(/C)C(=O)NC(=CC1=O)C2=O [17-AAG] + C[C@]1(O)C[C@@H](c2nc(-c3ccc4ccc(-c5ccccc5)nc4c3)c3c(N)nccn32)C1 [Linsitinib] (partner 1 µM)
Summary of the method: (§1)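 Cells from lung cancer lines were seeded into 1536-well plates and, one day later, dosed by pin tool. Treatments were either a single drug or a fixed dose of an anchor drug with five library-drug doses (not always all listed) in √10 steps. After 5 days, nuclei were stained in a one-step fixation (final 0.05% Triton X-100, 1% formaldehyde, 1 ug/ml Hoechst) and counted on 4× images, and relative viability is the treated-to-vehicle nuclei ratio, as the median of duplicate plates.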

17-AAG + Lapatinib = compound: C=CCNC1=C2C[C@@H](C)C[C@H](OC)[C@H](O)[C@@H](C)/C=C(\C)[C@H](OC(N)=O)[C@@H](OC)/C=C\C=C(/C)C(=O)NC(=CC1=O)C2=O [17-AAG] + CS(=O)(=O)CCNCc1ccc(-c2ccc3ncnc(Nc4ccc(OCc5cccc(F)c5)c(Cl)c4)c3c2)o1 [Lapatinib] (partner 2 µM)
Summary of the method: as §1

17-AAG + Alpelisib = compound: C=CCNC1=C2C[C@@H](C)C[C@H](OC)[C@H](O)[C@@H](C)/C=C(\C)[C@H](OC(N)=O)[C@@H](OC)/C=C\C=C(/C)C(=O)NC(=CC1=O)C2=O [17-AAG] + Cc1nc(NC(=O)N2CCC[C@H]2C(N)=O)sc1-c1ccnc(C(C)(C)C(F)(F)F)c1 [Alpelisib] (partner 2 µM)
Summary of the method: as §1

17-AAG + OSI-027 = compound: C=CCNC1=C2C[C@@H](C)C[C@H](OC)[C@H](O)[C@@H](C)/C=C(\C)[C@H](OC(N)=O)[C@@H](OC)/C=C\C=C(/C)C(=O)NC(=CC1=O)C2=O [17-AAG] + COc1cccc2cc(-c3nc([C@H]4CC[C@H](C(=O)O)CC4)n4ncnc(N)c34)[nH]c12 [OSI-027] (partner 0.5 µM)
Summary of the method: as §1

Cell Line | relative viability (17-AAG + Linsitinib; first compound 0.00128 µM) | relative viability (17-AAG + Linsitinib; first compound 0.004048 µM) | relative viability (17-AAG + Linsitinib; first compound 0.0128 µM) | relative viability (17-AAG + Linsitinib; first compound 0.04048 µM) | relative viability (17-AAG + Linsitinib; first compound 0.128 µM) | relative viability (17-AAG + Lapatinib; first compound 0.00128 µM) | relative viability (17-AAG + Lapatinib; first compound 0.004048 µM) | relative viability (17-AAG + Lapatinib; first compound 0.0128 µM) | relative viability (17-AAG + Lapatinib; first compound 0.04048 µM) | relative viability (17-AAG + Lapatinib; first compound 0.128 µM) | relative viability (17-AAG + Alpelisib; first compound 0.00128 µM) | relative viability (17-AAG + Alpelisib; first compound 0.004048 µM) | relative viability (17-AAG + Alpelisib; first compound 0.0128 µM) | relative viability (17-AAG + Alpelisib; first compound 0.04048 µM) | relative viability (17-AAG + Alpelisib; first compound 0.128 µM) | relative viability (17-AAG + OSI-027; first compound 0.00128 µM) | relative viability (17-AAG + OSI-027; first compound 0.004048 µM) | relative viability (17-AAG + OSI-027; first compound 0.0128 µM) | relative viability (17-AAG + OSI-027; first compound 0.04048 µM) | relative viability (17-AAG + OSI-027; first compound 0.128 µM)
LOU-NH91 | 0.874 | 0.678 | 0.587 | 0.478 | 0.311 | 0.852 | 0.795 | 0.521 | 0.328 | 0.36 | 0.66 | 0.592 | 0.532 | 0.446 | 0.34 | 0.666 | 0.618 | 0.443 | 0.359 | 0.316
LU99A | 0.484 | 0.671 | 0.449 | 0.24 | 0.174 | 0.885 | 0.965 | 0.323 | 0.288 | 0.141 | 0.564 | 0.535 | 0.477 | 0.4 | 0.165 | 0.333 | 0.332 | 0.282 | 0.217 | 0.141
LXF-289 | 0.964 | 0.954 | 0.924 | 0.52 | 0.179 | 0.907 | 0.874 | 0.694 | 0.449 | 0.152 | 1.07 | 1.03 | 0.882 | 0.647 | 0.118 | 0.823 | 0.779 | 0.53 | 0.104 | 0.0657
NCI-H23 | 0.554 | 0.511 | 0.486 | 0.174 | 0.157 | 0.933 | 0.882 | 0.233 | 0.204 | 0.131 | 0.717 | 0.472 | 0.434 | 0.2 | 0.148 | 0.623 | 0.646 | 0.365 | 0.179 | 0.121
NCI-H322M | 1.04 | 0.938 | 0.99 | 0.484 | 0.334 | 0.616 | 0.612 | 0.65 | 0.522 | 0.294 | 0.826 | 0.865 | 0.796 | 0.548 | 0.382 | 0.465 | 0.364 | 0.329 | 0.285 | 0.271
NCI-H358 | 0.817 | 0.892 | 0.148 | 0.161 | 0.131 | 0.504 | 0.324 | 0.162 | 0.137 | 0.121 | 0.838 | 0.556 | 0.126 | 0.134 | 0.126 | 0.768 | 0.41 | 0.0521 | 0.0586 | 0.0417
NCI-H460 | 0.771 | 0.0998 | 0.0141 | 0.0124 | 0.009 | 0.962 | 0.451 | 0.016 | 0.0135 | 0.0137 | 0.544 | 0.214 | 0.0127 | 0.0124 | 0.0122 | 0.62 | 0.413 | 0.0464 | 0.0193 | 0.0168
NCI-H520 | 0.987 | 0.856 | 0.728 | 0.144 | 0.122 | 0.797 | 0.654 | 0.396 | 0.132 | 0.112 | 0.993 | 0.838 | 0.839 | 0.155 | 0.132 | 0.305 | 0.268 | 0.27 | 0.202 | 0.152
NCI-H596 | 1.12 | 0.93 | 0.943 | 0.82 | 0.783 | 1.19 | 1.06 | 1.17 | 0.996 | 0.818 | 0.479 | 0.648 | 0.564 | 0.454 | 0.358 | 0.742 | 0.713 | 0.854 | 0.519 | 0.274
NCI-H647 | 1.16 | 0.596 | 0.18 | 0.118 | 0.074 | 1.15 | 0.386 | 0.0807 | 0.0919 | 0.0634 | 1.29 | 0.605 | 0.0949 | 0.107 | 0.0714 | 0.585 | 0.553 | 0.187 | 0.0899 | 0.0977
NCI-H650 | 0.865 | 0.908 | 0.788 | 0.314 | 0.177 | 0.982 | 1.05 | 0.62 | 0.333 | 0.215 | 1.19 | 1.09 | 1.26 | 0.855 | 0.326 | 0.502 | 0.602 | 0.494 | 0.426 | 0.258
NCI-H661 | 0.558 | 0.569 | 0.516 | 0.45 | 0.259 | 0.445 | 0.436 | 0.47 | 0.416 | 0.259 | 0.573 | 1 | 0.728 | 0.347 | 0.188 | 0.713 | 0.672 | 0.636 | 0.261 | 0.21
NCI-H727 | 0.312 | 0.252 | 0.176 | 0.179 | 0.22 | 0.775 | 0.765 | 0.829 | 0.238 | 0.342 | 0.519 | 0.63 | 0.358 | 0.182 | 0.192 | 0.602 | 0.573 | 0.506 | 0.359 | 0.24
NCI-H838 | 0.942 | 0.97 | 0.756 | 0.17 | 0.142 | 1.02 | 0.878 | 0.141 | 0.121 | 0.0916 | 0.872 | 0.96 | 0.803 | 0.176 | 0.158 | 0.408 | 0.369 | 0.246 | 0.147 | 0.124
NCI-H1355 | 0.946 | 0.747 | 0.776 | 0.725 | 0.286 | 0.97 | 0.979 | 0.776 | 0.223 | 0.159 | 0.867 | 0.86 | 0.884 | 0.86 | 0.327 | 0.44 | 0.467 | 0.272 | 0.185 | 0.166
